Common to all, as to test: NCI-60 cell line screen, 48 h
Test [1] relates to SK-OV-3 ovarian.
For test [2], the system named is DU-145 prostate.
Test [3] relates to HCT-116 colon.
The subject of test [4] is MCF7 breast.
Test [5] deals with MDA-MB-231 breast.
The test system of test [6] is SNB-75 CNS.
In test [7] the test system is SF-539 CNS.
For test [8], the system named is NCI-H23 lung.
Test [9] has as its system SF-268 CNS.
In test [10] the test system is CAKI-1 renal.

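Cultured in 96-well plates, cells were exposed to test compound for 48 hours across five concentrations. Abbreviation: GI50, concentration required for 50% inhibition of growth. TGI: total growth inhibition.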 Bounds are passed on as bounds.

As for `COc1ccccc1C(=O)c1c(N2CCCCC2)c(=O)c1=O`, the TGI in test [1], in test [2], in test [3], in test [4], in [5] and in [6] was more than 100 µM throughout. Besides, the TGI in test [7], in test [8], in test [9] and in test [10] was more than 100 µM in each case.

For the compound `NC(N)=N/N=C(\c1ccc(Cl)cc1)C1CC1`, the TGI in test [1] came to 78.7 µM; in test [2] it was 57.4 µM; in test [3] it was 31 µM; in [4] it was 32.5 µM; in test [5] it was 34.9 µM; in [6] it was 68.9 µM. Besides, the TGI in test [7] is 32.3 µM; in [8], 73.1 µM; in test [9], more than 100 µM; in [10] it was more than 100 µM.

In the case of `COc1cn2c(cc1=O)COc1ccc(-c3ccccc3)cc1-2`, the TGI in test [1], in test [2], in test [3], in test [4], in test [5] and in test [6] was more than 100 µM throughout. In addition, the TGI in test [7], in [8], in [9] and in [10] was more than 100 µM each time. Also, the GI50 in test [5] was more than 100 µM; in test [7], 43.6 µM.

As to `c1ccc2c(c1)CC1c3[nH]c4ccccc4c3CCN21` (stereo not drawn), the TGI in test [1], in [2], in [3], in test [4], in test [5] and in [6] was more than 10 µM each time. In addition, the TGI in test [7], in test [8], in test [9] and in [10] was more than 10 µM each time.

As to `O=C(Nc1cccc2nsnc12)c1cc2c(cc1Cl)Sc1nccn1S2(=O)=O`, the TGI in test [1] was more than 100 µM; in test [2], 3.17 µM; in test [3], 6.97 µM; in [4], 3.4 µM; in [5] it was 21.9 µM; in test [6], 35.9 µM. Moreover, the TGI in [7] was 10 µM; in [8], 25.3 µM; in test [9], 20.4 µM; in test [10] it was 25.7 µM. The GI50 in test [2] is 1740 nM.

For `COc1ccc(C2CC(c3c(C)nn(-c4ccccc4)c3-c3ccc(C)cc3O)=NN2c2ccccc2)cc1` (stereo not drawn), the TGI in test [1], in test [2], in [3], in [4], in test [5] and in [6] was more than 100 µM in each case. The TGI in [7] is more than 100 µM; in test [8], more than 30.3 µM; in [9], more than 100 µM; in [10] it was more than 100 µM.

With `O=C1c2cc([N+](=O)[O-])ccc2NC2C(O)c3ccccc3N12` (stereo not drawn), the TGI in [1] is 36 µM; in [2], 94.5 µM; in test [3] it was more than 100 µM; in test [4] it was more than 100 µM; in [5] it was more than 100 µM; in test [6] it was 44.8 µM. For the same compound, the TGI in test [7] was 74.7 µM; in test [8] it was 72.5 µM; in [9], more than 100 µM; in test [10] it was 54 µM.

For `CC1=NN(c2ccc(C)cc2)C2(C1)SCC(=O)N2c1nc2ccccc2s1` (stereo not drawn), the TGI was more than 100 µM in test [1]; more than 100 µM in [2]; 51.1 µM in test [3]; 48.8 µM in test [4]; 41.4 µM in [5]; 64.7 µM in [6]. Moreover, the TGI in test [7] is 46.8 µM; in test [8], 77.5 µM; in test [9], more than 100 µM; in test [10], more than 100 µM.

On to `CN(C)CCCn1c2ccccc2c2cnccc21`, for which the TGI in [1], in test [2], in test [3], in test [4], in [5] and in [6] was more than 100 µM in each case. Also, the TGI in [7] is 48.2 µM; in test [8] it was more than 100 µM; in [9], more than 100 µM; in [10], more than 100 µM.

Consider `CCOC(=O)c1c2c(n(C)c1-c1ccccc1)C(=O)C(C)=CC2=O`, for which the TGI in test [1] amounted to 30.4 µM; in test [2] it was 35.2 µM; in test [3], 15 µM; in test [4], 6.01 µM; in test [5] it was 4.62 µM; in [6], 28.8 µM. Also, the TGI in test [7] stood at 14.6 µM; in test [8] it was 29.7 µM; in test [9], 23.1 µM; in test [10], 28.1 µM.

In the case of `CC1(C)OC[C@@H](/C=C\CCO[Si](c2ccccc2)(c2ccccc2)C(C)(C)C)N1C(=O)c1ccccc1`, the TGI in [1] is more than 100 µM; in test [2], 95.9 µM; in test [3], 21.4 µM; in test [4], 24.4 µM; in [5], 38.4 µM; in test [6], more than 100 µM. The TGI in test [7] is 45.4 µM; in test [8], 96.7 µM; in [9], 81.4 µM; in test [10], more than 100 µM.

The values above are taken from PubChem BioAssay (NCI).
